Active and inactive are the calls of the source. The calls are words filed in the database; no cut-off is given here.
What was measured:
[1] = molecular target: Dual specificity calcium/calmodulin-dependent 3',5'-cyclic nucleotide phosphodiesterase 1C (Homo sapiens, UniProt Q14123); experiment: Inhibition of PDE1C (147 to 531 residues) (unknown origin) expressed in Escherichia coli BL21 using [3H]-cGMP as substrate measured for 15 mins by liquid scintillation counter method
Rattus norvegicus [2] = experiment: Antifibrotic activity in bleomycin-induced Sprague-Dawley rat lung fibrosis model assessed as decrease in alpha-smooth muscle actin level at 150 mg/kg, po administered daily for 28 days by Western blot analysis; format: functional, organism-based; conditions: time 28.0 day
Rattus norvegicus [3] = experiment: Antifibrotic activity in bleomycin-induced Sprague-Dawley rat lung fibrosis model assessed as decrease in fibronectin level at 150 mg/kg, po administered daily for 28 days by Western blot analysis; format: functional, organism-based; conditions: time 28.0 day
Rattus norvegicus [4] = experiment: Antifibrotic activity in bleomycin-induced Sprague-Dawley rat lung fibrosis model assessed as decrease in collagen I level at 150 mg/kg, po administered daily for 28 days by Western blot analysis; format: functional, organism-based; conditions: time 28.0 day

Chain of Dual specificity calcium/calmodulin-dependent 3',5'-cyclic nucleotide phosphodiesterase 1C (Q14123 whole entry, the tested form may be a part): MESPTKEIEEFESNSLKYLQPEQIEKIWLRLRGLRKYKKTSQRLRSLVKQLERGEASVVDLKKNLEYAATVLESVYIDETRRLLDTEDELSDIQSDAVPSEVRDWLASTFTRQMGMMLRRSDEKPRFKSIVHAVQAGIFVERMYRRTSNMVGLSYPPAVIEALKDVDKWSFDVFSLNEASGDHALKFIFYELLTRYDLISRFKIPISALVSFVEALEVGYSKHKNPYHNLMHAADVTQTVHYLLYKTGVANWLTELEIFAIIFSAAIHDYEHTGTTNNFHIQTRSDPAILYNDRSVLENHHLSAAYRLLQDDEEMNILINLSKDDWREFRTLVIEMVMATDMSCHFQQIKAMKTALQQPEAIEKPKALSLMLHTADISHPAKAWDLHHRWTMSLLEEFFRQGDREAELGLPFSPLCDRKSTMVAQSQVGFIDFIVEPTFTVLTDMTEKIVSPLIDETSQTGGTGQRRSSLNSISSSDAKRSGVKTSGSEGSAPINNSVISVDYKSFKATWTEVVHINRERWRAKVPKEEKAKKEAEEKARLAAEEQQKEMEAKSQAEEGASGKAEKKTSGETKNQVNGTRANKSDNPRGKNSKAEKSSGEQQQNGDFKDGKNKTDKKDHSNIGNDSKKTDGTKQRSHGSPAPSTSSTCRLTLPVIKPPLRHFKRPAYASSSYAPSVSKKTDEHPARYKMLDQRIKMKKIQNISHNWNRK

Row | IC50 [1] [µM] | SMILES | Activity (Rattus norvegicus [2]) | Activity (Rattus norvegicus [3]) | Activity (Rattus norvegicus [4])
1 | 1.85 | CCOC(=O)C1=C(C)NC(C)=C(C(=O)OC)C1c1cccc([N+](=O)[O-])c1 (centres undefined) [NITRENDIPINE] |  |  | 
2 |  | Cc1ccc(=O)n(-c2ccccc2)c1 | Active | Active | Active

— ChEMBL document CHEMBL5154941, “Structural Modifications of Nimodipine Lead to Novel PDE1 Inhibitors with Anti-pulmonary Fibrosis Effects” (J Med Chem, 2022)
